From patent US6562818B1, “Irreversible inhibitors of tyrosine kinases” (Warner-Lambert Company, priority 1997, dated 2003)
Counter-ions that a name gives are not always drawn.

What was measured:
EGFR [1] = target: T1, EGFR (Homo sapiens, UniProt P00533); conditions: A431 cells, 2 μM compound
Experimental: (§1) Extracts were made by lysing the monolayers in 0.2 mL of boiling Laemlli buffer (2% sodium dodecyl sulfate, 5% beta-mercaptoethanol, 10% glycerol and 50 mM tris[hydroxymethyl]aminomethane (Tris), pH 6.8), and the lysates were heated to 100° C. for 5 minutes. Proteins in the lysate were separated by polyacrylamide gel electrophoresis and electrophoretically transferred to nitrocellulose. The membrane was washed once in 10 mM Tris, pH 7.2, 150 mM NaCl, 0.01% Azide (TNA), and blocked overnight in TNA containing 5% bovine serum albumin and 1% ovalbumin. The membrane was blotted for 2 hours with antiphosphotyrosine antibody (UBI, 1 μg/mL in blocking buffer) and then washed twice in TNA, once in TNA containing 0.05% Tween-20 detergent and 0.05% nonidet P-40 detergent and twice in TNA. […] Band intensities were determined with a Molecular Dynamics laser densitometer.

EGFR [2] = target: T1, EGFR; conditions: read-out: EGFR (autophosphorlyation) IC50; A431 cells, 15 minutes compound, stimulated with 100 ng/mL EGF
Experimental: as §1
Duplicate sets of cells were treated with a range of concentrations of the designated compound to be tested as an inhibitor for 15 minutes. The cells were then stimulated with 100 ng/mL of EGF for 5 minutes and extracts made as described under the Western Blotting Procedure.

[3] = target: Human EGF receptor tyrosine kinase (Homo sapiens, UniProt P00533); conditions: read-out: EGFR (isolated enzyme) IC50; isolated enzyme from A431 cells, 10 μM ATP
Experimental: Human EGF receptor tyrosine kinase was isolated from A431 human epidermoid carcinoma cells by the following method. Cells were grown in roller bottles in dMEM/F12 media (Gibco/BRL) containing 10% fetal calf serum. Approximately 10^9 cells were lysed in 2 volumes of buffer containing 20 mM N-[2-hydroxyethyl]piperazine-N′-[2-ethane sulfonic acid](Hepes), pH 7.4, 5 mM ethylene glycol-bis(β-aminoethyl ether) N,N,N′,N′-tetraacetic acid (EGTA), 1% Triton X-100, 10% glycerol, 0.1 mM sodium orthovanadate, 5 mM sodium fluoride, 4 mM pyrophosphate, 4 mM benzamide, 1 mM dithiothreitol (DTT), 80 μg/mL aprotinin, 40 μg/mL leupeptin, and 1 mM phenylmethyl sulfonyl fluoride (PMSF). After centrifugation at 25,000×g for 10 minutes, the supernatant was applied to a fast Q sepharose column (Pharmacia Biotech., Inc., Piscataway, N.J.) and eluted with a linear gradient from 0.1 M NaCl to 0.4 M NaCl in 50 mM Hepes, 10% glycerol, pH 7.4. Enzyme active fractions were pooled, divided into aliquots, and stored at −100° C.
Enzyme assays for IC50 determinations were performed in 96-well filter plates (Millipore MADVN6550, Millipore, Bedford, Mass). […] The wells are then washed 5 times with 0.2 mL of 10% TCA and ^32P incorporation determined with a Wallac beta plate counter (Wallac, Inc., Gaithersburg, Pa.).

ErbB-2 = ErbB-2 (Homo sapiens, UniProt P04626); experiment: ErbB-2 autophosphorylation assay; type: cell-based; conditions: read-out: ErbB-2 (autophosphorlyation) IC50
Sequence of ErbB-2 (P04626 23-1255, species assumed): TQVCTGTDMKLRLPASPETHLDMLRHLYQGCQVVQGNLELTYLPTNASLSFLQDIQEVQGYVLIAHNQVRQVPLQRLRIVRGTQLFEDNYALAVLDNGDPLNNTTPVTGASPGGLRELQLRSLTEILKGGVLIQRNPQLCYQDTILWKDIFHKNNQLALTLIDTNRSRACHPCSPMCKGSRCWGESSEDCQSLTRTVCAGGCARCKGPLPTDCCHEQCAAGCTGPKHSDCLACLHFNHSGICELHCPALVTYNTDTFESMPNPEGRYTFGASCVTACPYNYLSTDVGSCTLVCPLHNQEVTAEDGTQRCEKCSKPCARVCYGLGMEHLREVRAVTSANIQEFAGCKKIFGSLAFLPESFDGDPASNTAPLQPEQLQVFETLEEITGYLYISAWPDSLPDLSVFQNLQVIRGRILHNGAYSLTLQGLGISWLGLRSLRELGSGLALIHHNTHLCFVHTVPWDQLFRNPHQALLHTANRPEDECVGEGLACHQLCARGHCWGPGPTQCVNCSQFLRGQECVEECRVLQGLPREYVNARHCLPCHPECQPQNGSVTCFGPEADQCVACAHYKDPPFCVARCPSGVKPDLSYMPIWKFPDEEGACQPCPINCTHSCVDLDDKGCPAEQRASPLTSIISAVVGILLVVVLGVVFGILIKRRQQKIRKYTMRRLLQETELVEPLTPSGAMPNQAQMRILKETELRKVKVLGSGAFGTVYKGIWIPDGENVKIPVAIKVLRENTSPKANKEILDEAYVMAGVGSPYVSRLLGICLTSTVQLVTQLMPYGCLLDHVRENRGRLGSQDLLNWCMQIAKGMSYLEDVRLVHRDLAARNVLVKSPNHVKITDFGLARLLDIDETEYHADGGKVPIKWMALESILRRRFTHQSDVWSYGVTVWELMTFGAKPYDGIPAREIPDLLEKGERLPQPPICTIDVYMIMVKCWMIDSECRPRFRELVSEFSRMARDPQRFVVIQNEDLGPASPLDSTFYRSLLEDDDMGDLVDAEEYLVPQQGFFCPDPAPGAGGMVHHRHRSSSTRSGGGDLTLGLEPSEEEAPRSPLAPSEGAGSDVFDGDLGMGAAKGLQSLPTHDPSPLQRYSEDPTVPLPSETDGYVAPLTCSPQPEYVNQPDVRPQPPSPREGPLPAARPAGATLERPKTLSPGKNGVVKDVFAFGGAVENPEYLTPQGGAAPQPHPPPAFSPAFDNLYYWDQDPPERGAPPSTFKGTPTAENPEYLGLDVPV

T1 sequence (P00533 25-1210 limits assumed): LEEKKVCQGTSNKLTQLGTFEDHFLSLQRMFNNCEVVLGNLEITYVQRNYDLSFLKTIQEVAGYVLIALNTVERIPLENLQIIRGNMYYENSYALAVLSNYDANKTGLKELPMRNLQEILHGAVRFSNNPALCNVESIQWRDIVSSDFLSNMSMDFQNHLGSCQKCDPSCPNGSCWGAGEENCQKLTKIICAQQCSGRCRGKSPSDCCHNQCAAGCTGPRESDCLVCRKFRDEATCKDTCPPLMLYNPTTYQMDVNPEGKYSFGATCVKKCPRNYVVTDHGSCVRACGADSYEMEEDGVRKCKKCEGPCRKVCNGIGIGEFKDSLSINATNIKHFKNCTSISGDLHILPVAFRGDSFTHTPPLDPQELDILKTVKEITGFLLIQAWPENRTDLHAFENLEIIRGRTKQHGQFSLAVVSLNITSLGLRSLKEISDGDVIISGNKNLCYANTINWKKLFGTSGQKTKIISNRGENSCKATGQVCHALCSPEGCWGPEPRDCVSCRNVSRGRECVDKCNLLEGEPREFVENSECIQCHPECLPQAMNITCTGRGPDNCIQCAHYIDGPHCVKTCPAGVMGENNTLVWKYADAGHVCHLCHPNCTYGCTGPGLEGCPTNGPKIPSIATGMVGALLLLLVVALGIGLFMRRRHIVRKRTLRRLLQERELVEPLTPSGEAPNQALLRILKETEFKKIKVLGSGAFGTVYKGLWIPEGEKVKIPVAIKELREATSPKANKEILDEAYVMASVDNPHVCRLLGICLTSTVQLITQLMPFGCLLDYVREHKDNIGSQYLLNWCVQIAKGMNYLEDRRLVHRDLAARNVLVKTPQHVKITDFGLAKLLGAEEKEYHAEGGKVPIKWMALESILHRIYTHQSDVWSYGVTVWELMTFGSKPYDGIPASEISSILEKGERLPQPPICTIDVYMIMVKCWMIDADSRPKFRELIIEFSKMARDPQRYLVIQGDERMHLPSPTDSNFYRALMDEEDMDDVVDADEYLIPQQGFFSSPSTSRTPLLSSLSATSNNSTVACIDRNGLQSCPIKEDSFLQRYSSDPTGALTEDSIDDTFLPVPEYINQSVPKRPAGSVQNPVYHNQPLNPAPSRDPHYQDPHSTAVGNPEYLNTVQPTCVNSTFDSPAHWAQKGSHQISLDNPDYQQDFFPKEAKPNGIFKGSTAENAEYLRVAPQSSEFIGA
Sequence of Human EGF receptor tyrosine kinase (P00533 25-1210 limits assumed): as above

% EGFR enzyme activity after 8 hours washoff (EGFR [1]) [%] | IC50 (EGFR [2]) [nM] | IC50 [3] [nM] | melting point [°C] | IC50 (ErbB-2) [nM] | SMILES
0 | 4.8 | 5.8 | – | – | C=CC(=O)Nc1ccc2ncnc(Nc3ccc(Oc4ccccc4)cc3)c2c1 [Example 1, N-(4-[4-Phenoxyanilino]quinazolin-6-yl)acrylamide]
– | – | – | 227 to 229 | – | C=CC(=O)Nc1ccc2ncnc(Nc3ccc(OCc4ccccc4)cc3)c2c1 (as salt: salt) [Example 2, N-(4-[4-Benzyloxyanilino]quinazolin-6-yl)acrylamide]
0 | 4.2 | 3.6 | – | 7.6 | C=CC(=O)Nc1ccc2ncnc(Nc3ccc(OCc4ccccc4)cc3)c2c1 [Example 2, N-(4-[4-Benzyloxyanilino]quinazolin-6-yl)acrylamide]
– | – | – | 185 to 191 | – | C=CC(=O)Nc1ccc2ncnc(Nc3ccc(Oc4ccccc4)cc3)c2c1 (as salt: salt) [Example 1, N-(4-[4-Phenoxyanilino]quinazolin-6-yl)acrylamide]
